Results from patent US12150922B1, “Methods of inhibiting cyclooxygenase (COX) using tolterodine” (priority 2023, dated 2024).
Where “and” joins values, the source holds several entries; their conditions need not be identical. Equal values may be shown once.

How the values were obtained:
COX-1 = COX-1 (UniProt P05979); assay type: biochemical; details: conversion of arachidonic acid to prostaglandin; 10 min preincubation at 37° C.; three separate experiments
Description: (§1) The Schrodinger Maestro molecular modeling suite (Schrodinger LLC, New York, USA) was utilized for all stages of virtual screening modeling. QikProp software tools offer a fast, accurate, and user-friendly approach for predicting molecular characteristics. This software evaluates a given molecule's properties and compares them with those of substances present in 95% of commonly prescribed drugs. A series of graded filters is employed to identify potential interactions within the active site of the receptor and the ligand. This process involves constructing a grid with varying field sets that accurately score the ligand poses while simultaneously depicting the structure and attributes of the receptor. COX-1 and COX-2 inhibitor screening assay kits were obtained from Cayman Chemical (Ann Arbor, MI, USA).
(§2) The inhibitory effects of tolterodine on COX-1 and COX-2 were determined using COX inhibitor screening test kits, testing each compound's capacity to inhibit the conversion of arachidonic acid to prostaglandin. In test tubes, 25 mM Tris-HCl, pH 8.0, containing 5 mM EDTA, phenol, and 1 mM hematin was added. Tolterodine was dissolved in DMSO and added in concentrations ranging from […]. […]
(§3) Three separate experiments were used to calculate the IC50 values. The selectivity index was calculated as follows: Selectivity Index (SI)=IC50 COX-1/IC50 COX-2

COX-2 = biological target: T1, COX-2 (Homo sapiens, UniProt P35354); assay: biochemical
T1 construct: purchased Cayman Chemical (Ann Arbor, MI, USA)
T1 sequence (P35354 18-604): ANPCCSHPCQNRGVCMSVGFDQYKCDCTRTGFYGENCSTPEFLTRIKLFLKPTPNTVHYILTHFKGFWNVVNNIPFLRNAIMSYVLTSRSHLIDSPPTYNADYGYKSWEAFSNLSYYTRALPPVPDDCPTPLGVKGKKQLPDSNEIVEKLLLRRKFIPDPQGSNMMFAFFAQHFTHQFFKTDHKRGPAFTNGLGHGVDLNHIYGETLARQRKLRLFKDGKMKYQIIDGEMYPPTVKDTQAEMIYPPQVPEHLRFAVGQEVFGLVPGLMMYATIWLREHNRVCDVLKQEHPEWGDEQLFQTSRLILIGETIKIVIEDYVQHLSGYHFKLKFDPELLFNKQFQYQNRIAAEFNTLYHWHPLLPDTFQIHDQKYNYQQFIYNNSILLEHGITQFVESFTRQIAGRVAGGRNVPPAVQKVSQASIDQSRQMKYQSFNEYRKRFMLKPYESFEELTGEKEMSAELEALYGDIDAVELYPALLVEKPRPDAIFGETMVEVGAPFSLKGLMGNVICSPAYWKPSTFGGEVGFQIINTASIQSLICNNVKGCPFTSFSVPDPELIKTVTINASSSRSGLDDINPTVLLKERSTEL
Description: as §1, §2, §3

Sequence of COX-1 (P05979 whole entry): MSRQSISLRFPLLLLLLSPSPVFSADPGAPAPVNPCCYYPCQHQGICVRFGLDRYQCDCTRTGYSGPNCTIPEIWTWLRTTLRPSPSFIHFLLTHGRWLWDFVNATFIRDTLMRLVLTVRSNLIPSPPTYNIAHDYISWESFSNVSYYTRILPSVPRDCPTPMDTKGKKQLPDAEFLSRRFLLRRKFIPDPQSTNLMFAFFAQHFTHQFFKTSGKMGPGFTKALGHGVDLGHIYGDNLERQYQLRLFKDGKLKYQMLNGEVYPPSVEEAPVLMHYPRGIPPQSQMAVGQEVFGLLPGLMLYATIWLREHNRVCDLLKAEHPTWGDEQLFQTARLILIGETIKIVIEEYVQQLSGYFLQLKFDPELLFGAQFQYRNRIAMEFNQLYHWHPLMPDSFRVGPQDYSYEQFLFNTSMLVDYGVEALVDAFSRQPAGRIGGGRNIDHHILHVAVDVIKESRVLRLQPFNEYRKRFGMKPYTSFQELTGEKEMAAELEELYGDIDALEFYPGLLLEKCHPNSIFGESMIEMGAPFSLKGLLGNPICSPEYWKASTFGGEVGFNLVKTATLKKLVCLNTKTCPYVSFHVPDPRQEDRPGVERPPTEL

Cc1ccc(O)c([C@H](CCN(C(C)C)C(C)C)c2ccccc2)c1 [Tolterodine]
IC50 (COX-1): ~4530 nM and 4530 nM | SI (Selectivity Index = IC50 COX-1/IC50 COX-2) (COX-2): 14.3 | IC50 (COX-2; conversion of arachidonic acid to prostaglandin, 10 min preincubation at 37° C., three separate experiments): ~320 nM and 320 nM
